Assay results: BigSolDB 2.1

Nc1cccc(S(=O)(=O)c2cccc(N)c2)c1
solubility (mole fraction)
Settings	283.15 K	288.15 K	293.15 K	298.15 K	303.15 K	308.15 K	313.15 K	318.15 K	323.15 K	328.15 K
in 1,4-dioxane	0.00411	0.00462	0.00538	0.00652	0.0083	0.0102	0.0123	0.0147	0.0169	0.0194
in DMF	0.0869	0.0916	0.0989	0.11	0.12	0.132	0.146	0.162	0.181	0.2
in acetonitrile	0.00609	0.00709	0.0087	0.0105	0.0127	0.0151	0.0182	0.0225	0.0272	0.033
in cyclohexane	2.7e-06	3.6e-06	5.1e-06	7.7e-06	1.09e-05	1.51e-05	2.03e-05	2.78e-05	3.7e-05	4.86e-05
in ethanol	0.00237	0.00256	0.00297	0.00349	0.00415	0.00492	0.00574	0.00661	0.00738	0.00837
in ethyl acetate	0.0146	0.0162	0.0184	0.021	0.0243	0.0278	0.0321	0.037	0.0424	0.0485
in ethylene glycol	0.00458	0.00515	0.00595	0.00701	0.00843	0.0101	0.012	0.0144	0.0168	0.0194
in isobutanol	0.000586	0.000665	0.000784	0.000952	0.00115	0.00137	0.00166	0.002	0.00234	0.00271
in isopropanol	0.00106	0.00121	0.00148	0.00196	0.00258	0.00326	0.00406	0.005	0.00611	0.00731
in methanol	0.00319	0.00351	0.00397	0.00482	0.00604	0.00744	0.00905	0.0107	0.0125	0.0152
in n-butanol	0.00109	0.00121	0.00142	0.00171	0.00205	0.00246	0.00294	0.00343	0.00396	0.00452
in n-heptanol	0.000699	0.000776	0.000898	0.00106	0.0013	0.0016	0.002	0.00242	0.0029	0.00346
in n-propanol	0.00142	0.00152	0.00177	0.00214	0.00254	0.00301	0.00356	0.00418	0.00496	0.0059
in water	1.52e-05	1.9e-05	2.51e-05	3.32e-05	4.29e-05	5.62e-05	7.79e-05	0.000106	0.000145	0.000198
